Assay [1] concerns H. pylori. The assay is described as follows: microbe, parasite or virus in culture. The settings on record: Helicobacter pylori, 72 h, read-out: H. pylori (MIC) µM.
The subject of assay [2] is H. pylori. As to the kind of experiment: microbe, parasite or virus in culture. The settings on record: Helicobacter pylori, 72 h, read-out: H. pylori (MIC) µg/ml.
The target of assay [3] is T1, jack bean urease (JBU) (Canavalia ensiformis, UniProt P07374). As to the kind of experiment: tandem-well NH3 assay, salicylic acid-hypochlorite. It is filed as biochemical.
T1 sequence (P07374 whole entry, looked up): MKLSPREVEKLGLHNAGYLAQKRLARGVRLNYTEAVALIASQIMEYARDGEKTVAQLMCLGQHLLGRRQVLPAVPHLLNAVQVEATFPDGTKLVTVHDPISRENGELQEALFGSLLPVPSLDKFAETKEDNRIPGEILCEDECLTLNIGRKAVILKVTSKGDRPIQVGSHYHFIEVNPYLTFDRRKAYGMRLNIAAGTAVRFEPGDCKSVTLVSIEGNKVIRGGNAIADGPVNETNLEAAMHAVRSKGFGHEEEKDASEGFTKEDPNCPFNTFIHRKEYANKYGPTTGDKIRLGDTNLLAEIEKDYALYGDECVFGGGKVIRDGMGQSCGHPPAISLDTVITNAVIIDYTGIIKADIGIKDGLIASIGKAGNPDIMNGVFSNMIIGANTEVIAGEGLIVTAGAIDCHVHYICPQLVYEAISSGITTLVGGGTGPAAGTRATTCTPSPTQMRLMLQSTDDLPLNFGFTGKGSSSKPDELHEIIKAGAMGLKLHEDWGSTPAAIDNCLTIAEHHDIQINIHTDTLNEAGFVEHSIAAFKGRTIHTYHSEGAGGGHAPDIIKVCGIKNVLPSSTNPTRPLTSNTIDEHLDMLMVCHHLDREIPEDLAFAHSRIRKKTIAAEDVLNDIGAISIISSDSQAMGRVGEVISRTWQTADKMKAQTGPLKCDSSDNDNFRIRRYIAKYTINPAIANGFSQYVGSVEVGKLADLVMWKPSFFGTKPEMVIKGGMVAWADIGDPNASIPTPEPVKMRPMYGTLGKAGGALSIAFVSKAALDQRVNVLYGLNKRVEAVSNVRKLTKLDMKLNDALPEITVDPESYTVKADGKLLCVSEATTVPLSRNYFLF
Assay [4] has as its target T2, H. pylori urease (HPU) (Helicobacter pylori, UniProt P69996). As to the kind of experiment: tandem-well NH3 assay, Nessler's reagent, crude extract. Format: biochemical.
The subject of the next assay is O. anthropi urease (OAU). It is filed as biochemical, Brucella anthropi.
Assay [5] deals with T2, H. pylori urease (HPU). The assay is described as follows: cell-based.
In a further assay the target is human CSE (hCSE) (Homo sapiens, UniProt P32929). The assay is described as follows: tandem-well H2S assay. Format: biochemical.
human CSE (hCSE), sequence (P32929 whole entry): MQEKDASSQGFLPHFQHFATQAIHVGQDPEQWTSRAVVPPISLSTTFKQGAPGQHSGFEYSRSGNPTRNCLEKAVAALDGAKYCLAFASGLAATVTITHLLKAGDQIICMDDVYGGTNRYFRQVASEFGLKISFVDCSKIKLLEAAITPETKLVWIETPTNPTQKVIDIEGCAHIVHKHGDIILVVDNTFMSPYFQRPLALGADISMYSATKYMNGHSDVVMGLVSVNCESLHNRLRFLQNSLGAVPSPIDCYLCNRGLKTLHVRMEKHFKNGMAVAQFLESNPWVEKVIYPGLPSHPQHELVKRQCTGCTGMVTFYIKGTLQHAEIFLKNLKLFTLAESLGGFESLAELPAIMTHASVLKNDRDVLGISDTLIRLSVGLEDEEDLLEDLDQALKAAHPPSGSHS
The target of a further assay is T3, human CBS (hCBS) (Homo sapiens, UniProt P35520).
T3 sequence (P35520 1-551): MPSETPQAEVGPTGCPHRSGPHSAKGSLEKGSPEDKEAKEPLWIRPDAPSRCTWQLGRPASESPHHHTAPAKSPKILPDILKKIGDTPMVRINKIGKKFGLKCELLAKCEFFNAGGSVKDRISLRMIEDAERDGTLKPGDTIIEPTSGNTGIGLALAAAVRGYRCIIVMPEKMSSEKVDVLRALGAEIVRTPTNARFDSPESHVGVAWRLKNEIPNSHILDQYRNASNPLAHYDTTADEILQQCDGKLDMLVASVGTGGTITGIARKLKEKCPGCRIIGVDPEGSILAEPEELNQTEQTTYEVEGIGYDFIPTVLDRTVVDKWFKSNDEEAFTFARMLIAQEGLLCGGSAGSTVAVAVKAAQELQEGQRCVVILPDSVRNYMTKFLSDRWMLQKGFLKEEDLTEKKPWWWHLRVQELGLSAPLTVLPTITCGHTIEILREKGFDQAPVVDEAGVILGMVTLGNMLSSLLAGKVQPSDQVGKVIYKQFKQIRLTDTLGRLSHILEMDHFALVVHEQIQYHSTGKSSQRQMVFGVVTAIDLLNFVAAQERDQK
As to the kind of experiment: tandem-well H2S assay. Format: biochemical.

Assay [6] has as its target T1, jack bean urease (JBU). The assay is described as follows: enzyme kinetics, tandem-well NH3 assay. Format: biochemical. The settings on record: urea 12.5-200 mM; noncompetitive, covalent, allosteric (Cys313).
The target in assay [7] is T1, jack bean urease (JBU). As to the kind of experiment: SPR, Biacore T200, JBU immobilised on CM5 chip. Format: binding.
In assay [8] the target is T1, jack bean urease (JBU). As to the kind of experiment: enzyme kinetics, tandem-well NH3 assay. It is filed as biochemical.
[9] abbreviates: 25 mM urea, 100 μM NiCl2, 50 mM phosphate pH 7.4, 37 °C, 30 min preincubation.

SMILES strings stand for the structures. ≈ marks a conversion by molar mass, not a printed value. Like-named read-outs stand apart in the source and are kept apart here. Where only a bound is given, the exact number is not on record here.

T2 sequence (P69996 whole entry): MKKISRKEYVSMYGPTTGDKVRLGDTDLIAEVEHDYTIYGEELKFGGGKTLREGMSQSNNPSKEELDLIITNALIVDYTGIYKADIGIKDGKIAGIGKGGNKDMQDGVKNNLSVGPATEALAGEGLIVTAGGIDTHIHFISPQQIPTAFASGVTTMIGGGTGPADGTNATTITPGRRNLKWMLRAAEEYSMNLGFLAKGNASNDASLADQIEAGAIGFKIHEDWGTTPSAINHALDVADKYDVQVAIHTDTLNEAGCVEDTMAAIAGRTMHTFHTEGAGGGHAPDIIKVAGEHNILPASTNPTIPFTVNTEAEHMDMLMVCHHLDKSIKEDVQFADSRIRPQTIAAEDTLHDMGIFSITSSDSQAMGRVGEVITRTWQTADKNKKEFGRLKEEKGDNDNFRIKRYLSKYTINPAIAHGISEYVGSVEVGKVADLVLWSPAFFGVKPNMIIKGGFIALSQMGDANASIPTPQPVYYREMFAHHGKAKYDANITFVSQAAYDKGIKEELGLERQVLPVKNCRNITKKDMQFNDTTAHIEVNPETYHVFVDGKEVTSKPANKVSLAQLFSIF
T2 sequence (P14916 whole entry partner): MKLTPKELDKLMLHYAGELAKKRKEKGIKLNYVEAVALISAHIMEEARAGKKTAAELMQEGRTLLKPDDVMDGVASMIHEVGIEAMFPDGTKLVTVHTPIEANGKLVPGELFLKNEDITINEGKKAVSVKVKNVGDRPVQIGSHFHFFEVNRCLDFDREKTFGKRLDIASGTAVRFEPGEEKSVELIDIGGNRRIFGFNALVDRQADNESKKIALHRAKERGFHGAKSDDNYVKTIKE

Consider `COc1ccc2c(=O)n(-c3ccccc3)[se]c2c1` [compound 1], for which the MIC in the assay with H. pylori [1] was 6.25 µM (≈ 1.9 µg/mL); with H. pylori [2], 2 µg/mL (≈ 6.57 µM).

Take `O=c1[nH][se]c2ccccc12` [compound 4, Benzisoselenol-3-one]: the 50% inhibitory concentration (IC50) (as a rule, the point on the concentration scale where inhibition reaches its midpoint) at jack bean urease (JBU) [3] is 0.8 ± 0.008 µM; against H. pylori urease (HPU) [4], 1.1 ± 0.08 µM; in the assay with O. anthropi urease (OAU), 2.2 ± 0.1 µM.

Regarding `O=C1c2ccccc2[Se](=O)N1c1ccccc1` (stereo not shown) [Ebselen oxide], the MIC is 12.5 µM (≈ 3.63 µg/mL) in the assay on H. pylori [1] and 4 µg/mL (≈ 13.8 µM) in the assay with H. pylori [2]. For the same molecule, the IC50 against H. pylori urease (HPU) [5] is 23.2 ± 1.1 µM; against jack bean urease (JBU) [3] it was 0.4 ± 0.005 µM; on H. pylori urease (HPU) [4] it was 1.5 ± 0.2 µM; with O. anthropi urease (OAU) it was 3.3 ± 0.1 µM.

Consider `O=c1[nH][se]c2ccccc12` [compound 4], for which the MIC is 12.5 µM (≈ 2.48 µg/mL) in the assay on H. pylori [1] and 2 µg/mL (≈ 10.1 µM) in the assay with H. pylori [2]. This molecule also came in with a 50% inhibitory concentration (IC50) against H. pylori urease (HPU) [5] of 18.5 ± 1.2 µM.

As for `CCS(=O)(=O)CCn1c([N+](=O)[O-])cnc1C` [Tinidazole], the values for the MIC in the assay with H. pylori [1] and in the assay with H. pylori [2] were more than 2000 µM and more than 512 µg/mL, respectively.

For the molecule `O=C(/C=C/c1cccc(S(=O)(=O)Nc2ccccc2)c1)NO` [belinostat], the concentration for half-maximal inhibition (IC50) against jack bean urease (JBU) [3] stood at 4.7 ± 0.5 µM; against H. pylori urease (HPU) [4], 3.2 ± 0.2 µM.

Regarding `COc1ccc2c(=O)n(-c3ccccc3)[se]c2c1` [compound 1, 2-Phenyl-6-methoxybenzoisoselen-3-one], the half-inhibitory concentration (IC50) against jack bean urease (JBU) [3] (setting [9]) is 0.3 ± 0.007 µM; against H. pylori urease (HPU) [4] (setting [9]), 2 ± 0.9 µM; in the assay on O. anthropi urease (OAU), 7.5 ± 0.6 µM.

Turning to `Cc1ncc([N+](=O)[O-])n1CCO` [Metronidazole], the figures for the MIC in the assay with H. pylori [1] and in the assay with H. pylori [2] were more than 3000 µM and more than 512 µg/mL, respectively.

`NO` [hydroxylamine]: the half-inhibitory concentration (IC50) at jack bean urease (JBU) [3] and on H. pylori urease (HPU) [4] was more than 20 µM in each case.

Turning to `CSn1[se]c2ccccc2c1=O` [compound 6, 2-Methylthio-benzisoseleno-3-one], the concentration for half-maximal inhibition (IC50) at jack bean urease (JBU) [3] (setting [9]) was found to be 0.3 ± 0.04 µM; against H. pylori urease (HPU) [4] (setting [9]), 1.3 ± 0.4 µM; in the assay with O. anthropi urease (OAU), 1.7 ± 0.1 µM.

Consider `CCN(CC)C(=S)SSC(=S)N(CC)CC` [disulfiram], for which the MIC in the assay with H. pylori [1] was found to be 12.5 µM (≈ 3.71 µg/mL); with H. pylori [2], 4 µg/mL (≈ 13.5 µM). The half-inhibitory concentration (IC50) is more than 200 µM on human CSE (hCSE); more than 200 µM against human CBS (hCBS); 36.3 ± 1 µM at H. pylori urease (HPU) [5]; 38.9 ± 2.7 µM against jack bean urease (JBU) [3]; 8.9 ± 1.5 µM against H. pylori urease (HPU) [4]; 35 ± 0.1 µM in the assay on O. anthropi urease (OAU).

As to `c1ccc(C[Se][Se]Cc2ccccc2)cc1` [dibenzyl diselenide], the MIC in the assay with H. pylori [1] was more than 200 µM; in the assay on H. pylori [2], more than 64 µg/mL.

Take `O=C(CCCCCCC(=O)Nc1ccccc1)NO` [vorinostat]: the IC50 was 4.1 ± 1.9 µM against jack bean urease (JBU) [3] and 14 ± 3.9 µM against H. pylori urease (HPU) [4].

Turning to `CNC(=O)[C@H](Cc1c[nH]c2ccccc12)NC(=O)[C@@H](CC(=O)NO)CC(C)C` [ilomastat], the IC50 against jack bean urease (JBU) [3] and at H. pylori urease (HPU) [4] was more than 20 µM in each case.

With `O=c1c2ccccc2[se]n1-c1ccccc1` [ebselen], the MIC in the assay on H. pylori [1] came out at 12.5 µM (≈ 3.43 µg/mL); with H. pylori [2] it was 4 µg/mL (≈ 14.6 µM). Moreover, the αKi on jack bean urease (JBU) [6] was determined as 0.8 ± 0.2 µM. Also, the dissociation constant (Kd) (usually the free concentration of one partner at which half of the binding sites on the other are occupied at equilibrium, for simple one-to-one binding) on jack bean urease (JBU) [7] worked out at 0.089 ± 0.005 µM. Also, the IC50 is 44.3 ± 1.3 µM at human CSE (hCSE); more than 200 µM against human CBS (hCBS); 5.7 ± 1.3 µM on H. pylori urease (HPU) [5]; 0.4 ± 0.07 µM against jack bean urease (JBU) [3]; 2.8 ± 0.5 µM against H. pylori urease (HPU) [4]; 3 ± 1 µM in the assay with O. anthropi urease (OAU).

As for `O=C(CCCCCCNC(=O)c1cnc(N(c2ccccc2)c2ccccc2)nc1)NO` [ricolinostat], the IC50 against jack bean urease (JBU) [3] and against H. pylori urease (HPU) [4] was more than 20 µM each time.

With `CCCn1[se]c2ccccc2c1=O` [compound 5, 2-Propyl-benzisoselenol-3-one], the IC50 on jack bean urease (JBU) [3] is 1.4 ± 0.03 µM; on H. pylori urease (HPU) [4], more than 10 µM; with O. anthropi urease (OAU), 5.3 ± 0.9 µM.

`CC(=O)NO` [acetohydroxamic acid]: the MIC in the assay on H. pylori [2] is more than 16 µg/mL. In addition, the half-maximal inhibitory concentration (IC50) is more than 200 µM on human CSE (hCSE); more than 200 µM at human CBS (hCBS); 162 ± 13.4 µM at jack bean urease (JBU) [3]; 25.9 ± 1.2 µM against H. pylori urease (HPU) [4]; 2.8 ± 0.9 µM in the assay on O. anthropi urease (OAU). Besides, at jack bean urease (JBU) [8], the inhibitory constant (Ki) (as a rule, the dissociation constant of the complex between target and ligand, obtained from inhibition or displacement) worked out at 2.1 ± 0.8 µM.

Regarding `CN(C)Cc1c(C(=O)NCCOc2ccc(C(=O)NO)cc2)oc2ccccc12` [abexinostat], the IC50 on jack bean urease (JBU) [3] came to 1.4 ± 0.3 µM; at H. pylori urease (HPU) [4] it was 1.3 ± 0.2 µM.

`Cc1[nH]c2ccccc2c1CCNCc1ccc(/C=C/C(=O)NO)cc1` [panobinostat] showed an equilibrium dissociation constant (Kd) at jack bean urease (JBU) [7] of 8.9 ± 0.4 µM. The half-inhibitory concentration (IC50) at human CSE (hCSE) was more than 200 µM; at human CBS (hCBS) it was more than 200 µM; at jack bean urease (JBU) [3] it was 0.2 ± 0.006 µM; against H. pylori urease (HPU) [4], 0.1 ± 0.01 µM; in the assay on O. anthropi urease (OAU), 0.07 ± 0.006 µM. Further, on jack bean urease (JBU) [8], the Ki was 0.02 ± 0.01 µM.

(Values after article doi:10.1101/2021.01.05.425432v2 (biorxiv, 2021).)
